“And” between values parts separate entries of the source, which are not always exact repeats. Equal values may be shown once. Read-outs that look alike come from different tables or passages of the source. Marks after values point to notes of the source that are not given here.
What was measured:
[1] = molecular target: T1, human Serotonin 5-HT7A receptor (Homo sapiens, UniProt P34969); assay: Radioligand binding competition, filtration binding assay, 5-HT7A; settings: for Ki: CHO-K1 membranes
T1 construct: expressed in transfected cells; host or cells: CHO-K1
Method: Radioligand binding experiments are conducted with membrane preparations.

[2] = molecular target: T2, human Serotonin 5-HT1A receptor (Homo sapiens, UniProt P08908); assay: cAMP HTRF assay, agonist mode, 5-HT1A; format: cell-based; settings: % of reference agonist at EC100, average where marked d
T2 sequence (P08908 1-422): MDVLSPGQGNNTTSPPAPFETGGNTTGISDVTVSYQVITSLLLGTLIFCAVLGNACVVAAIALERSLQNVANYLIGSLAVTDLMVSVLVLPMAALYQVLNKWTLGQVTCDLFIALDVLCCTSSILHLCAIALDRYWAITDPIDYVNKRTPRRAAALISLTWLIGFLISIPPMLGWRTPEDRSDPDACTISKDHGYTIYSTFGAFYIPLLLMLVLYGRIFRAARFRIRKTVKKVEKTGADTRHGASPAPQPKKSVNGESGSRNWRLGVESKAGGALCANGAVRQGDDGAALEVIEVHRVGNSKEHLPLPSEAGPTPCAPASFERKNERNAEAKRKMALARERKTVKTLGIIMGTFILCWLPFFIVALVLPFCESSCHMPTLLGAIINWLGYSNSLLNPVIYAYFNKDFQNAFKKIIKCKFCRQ
Method: (§1) SPA ^35S-GTPgS experiments are conducted with membrane preparations. IP-One and cAMP HTRF assays are conducted with recombinant cell lines.
(§2) Agonist activity of test compounds is expressed as a percentage of the activity of the reference agonist at its EC100 concentration. Antagonist activity of the test compound is expressed as a percentage of the inhibition of reference agonist activity at its EC80 concentration.

[3] = molecular target: T3, human Serotonin 5-HT2A receptor (Homo sapiens, UniProt P28223); assay: IPOne HTRF assay, agonist mode, 5-HT2A; format: cell-based; settings: for Top % Activation at maximal concentration, 5-HT2A (agonist mode): % of reference agonist at EC100, average where marked d
T3 construct: expressed in transfected cells; host or cells: CHO-K1
Method: as §1, §2

[4] = molecular target: T3, human Serotonin 5-HT2A receptor; assay: IPOne HTRF assay, antagonist mode, 5-HT2A; format: cell-based; settings: IP-one
Method: IP-One and cAMP HTRF assays are conducted with recombinant cell lines.
as §2

[5] = molecular target: human Dopamine D3 receptor (Homo sapiens, UniProt P35462); settings: GTPγS; average where marked d
Method: as §1, §2

[6] = molecular target: T1, human Serotonin 5-HT7A receptor; assay: cAMP HTRF assay, antagonist mode, 5-HT7A; format: cell-based
[7] = In vitro metabolism, disappearance in pooled cryopreserved human hepatocytes; format: in vitro ADME; settings: 5 μM; for Disappearance without cells (buffer), 0 min, % / Disappearance without cells (buffer), 60 min, % / Disappearance without cells (buffer), 120 min, %: no cell control / buffer; for Disappearance in human hepatocytes, 0 min, % / Disappearance in human hepatocytes, 60 min, % / Disappearance in human hepatocytes, 120 min, %: with cells
Method: Study compounds are investigated in pooled cryopreserved human (mixed gender) hepatocytes. The incubations are performed using 5 μM initial concentration and sampling at 0, 60, and 120 minute time points. The samples are analyzed using UPLC-QE-orbitrap-MS. Incubation volume: 300 μl in 48-well plate. Number of cells: 1 million viable cells/ml. Test compound: 5 μM (stock solution in DMSO). Incubation medium: pH 7.4, Bioreclamation IVT in vitro KHB medium. Shaking: 600 rpm. Time points: 0, 60, and 120 minutes with and without cells. Temperature: 37° C. Sampling volume: 60 μl. DMSO content in incubation: 0.5%. […] Control: verapamil disappearance rate.
Sample preparation for hepatocyte samples: Samples are centrifuged for 20 min at 2272×g at room temperature and pipetted to a UPLC-plate for analysis.

[8] = tested on: Male Sprague Dawley rats; assay: Touchscreen-based rat Probabilistic Reward Task; format: in vivo; settings: 1 mg/kg orally, 4-5 hr prior to session
Description: Example 7—Touchscreen-Based Rat Probabilistic Reward Task
The Probabilistic Reward Task (PRT) uses visual discrimination methodology to quantify reward responsiveness to both identify deficits and characterize drug-induced improvements. Groups of rats are trained on the touchscreen-based PRT and exposed to asymmetrical probabilistic contingencies to generate response biases to the richly rewarded stimulus (Pizzagalli, D. et al., Biological Psychiatry, 2005, 57, 319-327; Kangas, B. et al., Translational Psychiatry, 2020, 10(1):285; Wooldridge, L. et al., International Journal of Neuropsychopharmacology, 2021, 24, 409-418).
Male Sprague Dawley rats are used in the present study.
Briefly, a custom-built Plexiglas chamber (25×30×35 cm) is situated in a sound- and light-attenuating enclosure (40×60×45 cm). A 17″ touch-sensitive screen (1739L, ELO TouchSystems, Menlo Park, CA) comprises the inside right-hand wall of the enclosure. An infusion pump (PHM-100-5, Med Associates, St. Albans, VT) outside the enclosure is used to deliver sweetened condensed milk solution into the shallow reservoir of a custom-designed aluminum receptacle. […]
Following line-length discrimination training, probabilistic reinforcement schedules are introduced. […] These probabilistic contingencies are assessed across 5 consecutive sessions prior to initiation of drug testing.

[9] = tested on: Adult male Wistar rats; assay: Conditioned Avoidance Response test; format: in vivo, rat
Description: Adult male Wistar rats are used.
The Conditioned Avoidance Response (CAR) Test is an animal model screening for antipsychotic drugs.

[10] = tested on: Adult male Sprague Dawley rats; assay: Headshake response; format: in vivo, rat
Method: Example 9—Headshake Response
Adult male Sprague Dawley rats are used. […] DOI (3 mg/kg) is dissolved in saline and administered IP at a dose volume of 1 ml/kg (10 minutes prior to test).
The headshake response is a rapid, rhythmic shaking of the head in a radial motion. Data are analyzed by ANOVA followed by post hoc analysis where appropriate.

[11] = tested on: Adult male Sprague Dawley rats; assay: DOI-induced headshake response; format: in vivo, rat
Method: Example 10—DOI-Induced Headshake Response
Adult male Sprague Dawley rats are used. […] DOI (3 mg/kg) is dissolved in saline and administered IP at a dose volume of 1 ml/kg (10 minutes prior to test). Ketanserin (1 mg/kg) is dissolved in saline and injected IP 30 minutes prior to DOI at a dose volume of […].
Rats are then injected with DOI and headshakes are recorded 10 minutes after DOI injection for 10 minutes using video cameras. The headshake response is a rapid, rhythmic shaking of the head in a radial motion. Data is analyzed by ANOVA followed by post hoc analysis where appropriate.

[12] = molecular target: human Dopamine D2S receptor (Homo sapiens, UniProt P14416)
Method: as §1, §2

[13] = molecular target: T4, human Dopamine D4.4 receptor (Homo sapiens, UniProt P21917); settings: cAMP; average where marked d
T4 sequence (P21917 1-419): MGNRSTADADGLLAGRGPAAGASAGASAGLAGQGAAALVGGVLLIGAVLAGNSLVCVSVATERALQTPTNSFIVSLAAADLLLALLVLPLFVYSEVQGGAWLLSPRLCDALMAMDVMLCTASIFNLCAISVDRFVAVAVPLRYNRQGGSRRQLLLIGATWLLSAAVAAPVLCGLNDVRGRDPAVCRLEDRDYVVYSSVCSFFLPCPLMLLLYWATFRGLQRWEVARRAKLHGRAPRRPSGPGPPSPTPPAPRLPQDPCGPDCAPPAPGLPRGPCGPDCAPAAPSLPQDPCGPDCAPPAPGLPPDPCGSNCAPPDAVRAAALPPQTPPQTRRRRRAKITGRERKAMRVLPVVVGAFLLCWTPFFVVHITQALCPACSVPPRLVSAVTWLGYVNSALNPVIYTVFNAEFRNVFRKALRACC
Method: as §1, §2

[14] = molecular target: T3, human Serotonin 5-HT2A receptor; assay: Radioligand binding competition, filtration binding assay, 5-HT2A (labeled ketanserin)
[15] = [3H]-LSD, average where marked c, read-out: Binding 5-HT7A IC50
[16] = numbers in parentheses that were averaged, read-out: Binding 5-HT7A IC50, single determinations
[17] = 2.5 and 5 mg/kg orally, 4 hours prior to test
[18] = 0.5 mg/kg i.p., 30 minutes prior to test

T3 sequence (P28223 whole entry): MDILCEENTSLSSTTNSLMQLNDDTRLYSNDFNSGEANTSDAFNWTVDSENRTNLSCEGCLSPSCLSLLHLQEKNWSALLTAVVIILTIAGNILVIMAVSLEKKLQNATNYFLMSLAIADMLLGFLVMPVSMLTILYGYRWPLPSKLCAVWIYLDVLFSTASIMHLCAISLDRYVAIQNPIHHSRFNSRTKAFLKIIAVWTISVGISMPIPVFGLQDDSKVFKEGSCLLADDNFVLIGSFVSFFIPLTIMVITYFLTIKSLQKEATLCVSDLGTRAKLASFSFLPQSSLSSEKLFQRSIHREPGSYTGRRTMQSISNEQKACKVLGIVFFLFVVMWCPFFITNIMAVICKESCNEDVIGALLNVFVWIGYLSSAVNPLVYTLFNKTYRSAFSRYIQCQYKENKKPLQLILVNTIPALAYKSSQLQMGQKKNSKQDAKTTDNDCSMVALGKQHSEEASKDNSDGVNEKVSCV
T1 sequence (P34969 1-445 isoform P34969-2): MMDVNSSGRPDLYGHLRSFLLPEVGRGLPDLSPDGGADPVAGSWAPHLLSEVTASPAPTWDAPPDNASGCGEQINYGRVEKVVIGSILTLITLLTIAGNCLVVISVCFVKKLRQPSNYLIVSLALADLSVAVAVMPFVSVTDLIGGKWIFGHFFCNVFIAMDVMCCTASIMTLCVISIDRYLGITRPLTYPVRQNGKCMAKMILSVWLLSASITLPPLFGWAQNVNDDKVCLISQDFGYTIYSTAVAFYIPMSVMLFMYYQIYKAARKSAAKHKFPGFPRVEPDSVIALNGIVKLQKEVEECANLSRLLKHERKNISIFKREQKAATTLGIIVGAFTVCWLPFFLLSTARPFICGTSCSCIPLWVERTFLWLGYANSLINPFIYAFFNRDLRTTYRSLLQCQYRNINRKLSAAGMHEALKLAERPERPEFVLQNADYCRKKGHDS
Chain of human Dopamine D3 receptor (P35462 whole entry): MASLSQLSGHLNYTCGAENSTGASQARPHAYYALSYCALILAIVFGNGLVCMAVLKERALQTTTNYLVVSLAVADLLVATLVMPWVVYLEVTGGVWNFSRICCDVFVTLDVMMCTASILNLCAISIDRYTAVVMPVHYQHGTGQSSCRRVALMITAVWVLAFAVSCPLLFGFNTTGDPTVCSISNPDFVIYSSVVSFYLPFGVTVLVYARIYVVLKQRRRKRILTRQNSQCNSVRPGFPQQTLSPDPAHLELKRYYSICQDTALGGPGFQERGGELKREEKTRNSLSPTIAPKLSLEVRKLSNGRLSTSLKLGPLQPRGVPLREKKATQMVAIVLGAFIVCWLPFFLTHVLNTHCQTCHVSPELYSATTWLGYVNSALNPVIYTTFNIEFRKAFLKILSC
Chain of human Dopamine D2S receptor (P14416 1-414 isoform P14416-2): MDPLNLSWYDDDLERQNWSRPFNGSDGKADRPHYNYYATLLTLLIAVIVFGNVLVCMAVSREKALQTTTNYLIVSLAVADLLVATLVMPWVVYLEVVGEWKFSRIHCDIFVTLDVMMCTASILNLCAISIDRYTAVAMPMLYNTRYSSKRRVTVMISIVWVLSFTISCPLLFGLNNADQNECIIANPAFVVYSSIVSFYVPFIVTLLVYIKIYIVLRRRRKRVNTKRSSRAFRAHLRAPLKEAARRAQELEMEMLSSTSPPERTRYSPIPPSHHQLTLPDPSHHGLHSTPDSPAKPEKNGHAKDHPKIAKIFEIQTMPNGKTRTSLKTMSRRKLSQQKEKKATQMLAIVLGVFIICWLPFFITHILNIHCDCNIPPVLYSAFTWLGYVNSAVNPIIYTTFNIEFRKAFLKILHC

In the case of `CNc1cc(OC)c(C(=O)N[C@H]2CCN(Cc3ccccc3)[C@H]2C)cc1Cl` (racemic) [Nemonapride, (±)-cis-N-(1-Benzyl-2-methylpyrrolidin-3-yl)-5-chloro-2-methoxy-4-methylaminobenzamide], the Ki ([1]; [3H]-LSD) is reported as 53.2 nM, the IC50 [1, 15] is reported as 75.7 nM and the “Top % Activation at maximal concentration, 5-HT1A (agonist mode)” value (shortened to “Top % Activation … 5-HT1A (agonist mode)”) [2] is reported as 52%. The “Top % Activation at maximal concentration, 5-HT2A (agonist mode)” value ([3]; IP-one) was 48%, the “Top % Inhibition at maximal concentration, 5-HT2A (antagonist mode)” value [4] was 33% and the “Top % Inhibition at maximal concentration, D3 (antagonist mode)” value (from here on “Top % Inhibition … D3 (antagonist mode)”) [5] was 126%.
For `[2H]C([2H])([2H])Nc1cc(OC)c(C(=O)N[C@@H]2CCN(C([2H])([2H])c3ccccc3)[C@@H]2C)cc1Cl` [Example 1, 5-Chloro-N-((2R,3R)-1-(dideutero(phenyl)methyl)-2-methylpyrrolidin-3-yl)-2-methoxy-4-(trideuteromethylamino)benzamide], the Ki ([1]; [3H]-LSD) was 82.6 nM, the IC50 [1, 15] was 131 nM and the IC50 [1, 16] was 143 nM and 118 nM. The “Top % Activation … 5-HT1A (agonist mode)” value [2] was 64^d %, the “Top % Activation at maximal concentration, 5-HT2A (agonist mode)” value ([3]; IP-one) was 69^d % and the “Top % Activation, 5-HT2A (agonist mode), single determinations” value ([3]; IP-one, numbers in parentheses that were averaged, listed as Ex. 1 (A2)) was 53% and 82% and 68% and 72%. The “5-HT2A agonism (in words)” value ([3]; compared with non-deuterated analog / summary of Tables 4 and 5) was 5-HT2A partial agonist and higher 5-HT2A agonism, the IC50 [6] was > 3000 nM and the “Disappearance without cells (buffer), 0 min, %” value [7] was 100%. For the same molecule, the “Disappearance without cells (buffer), 60 min, %” value [7] was 91%, the “Disappearance without cells (buffer), 120 min, %” value [7] was 92% and the “Disappearance in human hepatocytes, 0 min, %” value [7] was 100%. For the same molecule, the “Disappearance in human hepatocytes, 60 min, %” value [7] was 8%, the “Disappearance in human hepatocytes, 120 min, %” value [7] was 1% and the “Reward response bias (log b)” value [8] was “enhances reward response bias (log b) significantly”. The “Escape failures compared to vehicle” value ([9]; 0.5, 2.5 and 5 mg/kg orally, 4 hours prior to test) was “None of the doses of the deuterated compound of Example 1 (A2) have a significant treatment effect”, the “Number of avoidance responses compared to vehicle” value [9, 17] was “significantly decrease” and the “Percent avoidance compared to vehicle” value [9, 17] was “significantly decrease”. The “Number of headshakes compared to vehicle” value ([10]; 1, 5 and 10 mg/kg PO, 4 hours prior to test) was “no significant increase”, the DOI-induced headshake responses ([11]; 1, 5 and 10 mg/kg PO, 4 hours prior, DOI 3 mg/kg IP) was “significantly attenuate DOI-induced headshake responses” and the “Top % Inhibition, D2S (antagonist mode), single determinations” value [12] was 93) %. The “Top % Inhibition, D2S (antagonist mode), single determinations” value ([12]; cAMP, numbers in parentheses that were averaged) was “(104, %”, the “Top % Inhibition … D3 (antagonist mode)” value [5] was 122^d % and the “Top % Inhibition at maximal concentration, D4 (antagonist mode)” value [13] was 100^d %.
In the case of `CCN1CCC[C@H]1CNC(=O)c1c(OC)ccc(Br)c1OC` [S-remoxipride], the “Binding to the 5-HT2A receptor in vitro (in words)” value [14] is reported as “do not even bind”.
With `COc1cc(CC(C)N)c(OC)cc1I` (stereo not drawn) [DOI, reference compound] the “Number of headshakes compared to vehicle” value ([10]; 3 mg/kg i.p., 10 minutes prior to test) was “significantly increases headshake responses” and the “Number of headshakes compared to vehicle” value ([11]; DOI 3 mg/kg IP, 10 minutes prior to test) was “significantly increases the number of headshakes”.
In the case of `CNc1cc(OC)c(C(=O)N[C@@H]2CCN(Cc3ccccc3)[C@@H]2C)cc1Cl` [cis (R,R) nemonapride, N-[(2R,3R)-1-benzyl-2-methylpyrrolidin-3-yl]-5-chloro-2-methoxy-4-(methylamino)benzamide, reference compound], the Ki ([1]; [3H]-LSD) is reported as 102 nM, the IC50 [1, 15] is reported as 129 nM and the IC50 [1, 16] is reported as 112 nM and 145 nM. For the same molecule, the “Top % Activation … 5-HT1A (agonist mode)” value [2] was 78^d %, the “Top % Activation at maximal concentration, 5-HT2A (agonist mode)” value ([3]; IP-one) was 44^d % and the IC50 [6] was 2470 nM. The “Disappearance without cells (buffer), 0 min, %” value [7] was 100%, the “Disappearance without cells (buffer), 60 min, %” value [7] was 96% and the “Disappearance without cells (buffer), 120 min, %” value [7] was 99%. For the same molecule, the “Disappearance in human hepatocytes, 0 min, %” value [7] was 100%, the “Disappearance in human hepatocytes, 60 min, %” value [7] was 10% and the “Disappearance in human hepatocytes, 120 min, %” value [7] was 2%. The “Top % Inhibition … D3 (antagonist mode)” value [5] was 99^d % and the “Top % Inhibition at maximal concentration, D4 (antagonist mode)” value [13] was 111^d %.
In the case of `Cc1nc2n(c(=O)c1CCN1CCC(c3noc4cc(F)ccc34)CC1)CCCC2` [risperidone, reference compound], the “Number of avoidance responses compared to vehicle” value [9, 18] is reported as “significantly decrease” and the “Percent avoidance compared to vehicle” value [9, 18] is reported as “significantly decrease”.
With `O=C(c1ccc(F)cc1)C1CCN(CCn2c(=O)[nH]c3ccccc3c2=O)CC1` [Ketanserin] the DOI-induced headshake responses ([11]; 1 mg/kg IP, 30 minutes prior to DOI 3 mg/kg IP) was “significantly attenuate DOI-induced headshake responses”.
With `CCN1CCC[C@@H]1CNC(=O)c1c(OC)ccc(Br)c1OC` [R-remoxipride] the “Binding to the 5-HT2A receptor in vitro (in words)” value [14] was “do not even bind”.

Source: patent US20250091990A1, “DEUTERATED ORGANIC COMPOUNDS AND USES THEREOF” (ENGRAIL THERAPEUTICS, INC., priority 2022, published 2025)
